These are literature values, as cited in US12006297B2, “Antibacterial activity of functionalized dihydropyrimidines” (WiSys Technology Foundation, Inc., priority 2021, dated 2024).

Data set [1] has as its system skin infections.
Data set [2] has as its system MRSA. As to conditions: versus oxacillin and erythromycin.
For data set [3], the target named is DHFR (Staphylococcus aureus, UniProt P0A017).
DHFR, sequence (P0A017 whole entry): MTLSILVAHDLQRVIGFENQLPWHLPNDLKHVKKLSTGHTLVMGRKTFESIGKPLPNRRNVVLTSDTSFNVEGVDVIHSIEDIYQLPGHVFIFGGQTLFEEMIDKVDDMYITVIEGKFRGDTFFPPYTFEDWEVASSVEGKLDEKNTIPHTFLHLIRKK

Regarding `COc1cc(Cc2cnc(N)nc2N)c2c(c1OC)OC(C1CC1)C=C2` (racemic) [Iclaprim], the side effects entry in data set [1] (clinical trials) is on record as “mild to moderate side effects”. Further, the efficacy versus vancomycin entry in data set [1] (control of skin infections, phase 2 and 3 clinical trials) is “non-inferiority”.
Take `CCOC(=O)C1=C(CC)NC(N)=NC1c1cc(Cl)cc(Cl)c1O` (stereo not shown) [HAK-22, emmacin]: the “MRSA growth inhibition compared with approved antibiotics” value in data set [2] is given as “inhibiting the growth of MRSA at concentrations lower than approved antibiotics”. In data set [3], the “mechanism of DHFR inhibition” value was “unique allosteric uncompetitive mechanism”.
